Source: patent publication US10570117B2, “Phenylimidazole compound” (Otsuka Pharmaceutical Factory, Inc., priority 2015, dated 2020)
In brackets after ≈: the same amount, converted by molar mass. Read-outs that look alike come from different tables or passages of the source.

Legend:
[1] = test system: lipoprotein lipase (LPL) gene; test: LPL mRNA elevating action (RT-PCR quantification of LPL mRNA in C2Cl2 cells); assay type: cell-based, mouse; details: Mus musculus, 24 h, compound 10 μM, ratio relative to the amount of LPL mRNA in cells with DMSO only, read-out: Rate of increase in LPL mRNA
Outline: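 Mouse striated-muscle C2Cl2 cells in DMEM with 10% FBS exposed to compounds at 10 μM for 24 h. LPL mRNA quantified by RT-PCR and real-time PCR (20 cycles), expressed as ratio to DMSO-only cells set at 1.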

[2] = Solubility in gastric juice or intestinal juice model fluid (precipitation method using DMSO); assay type: physicochemical; details: room temperature
Outline: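 Compound in DMSO added to JP disintegration test fluid 1 (pH 1.2) or fluid 2 (pH 6.8) and shaken 24 h at room temperature. After filtration, dissolved concentration (μg/mL) determined by UV absorbance against compound calibration curves.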

[3] = pH 1.2, simulated gastric fluid, kinetic from dmso stock, 1st fluid for Disintegration Test of Japanese Pharmacopoeia (pH: 1.2), read-out: Solubility (μg/mL) 1st fluid
[4] = pH 6.8, kinetic from dmso stock, 2nd fluid for Disintegration Test of Japanese Pharmacopoeia (pH: 6.8), read-out: Solubility (μg/mL) 2nd fluid

| melting point | solubility at 24 h [2, 3] [µg/mL] | solubility at 24 h [2, 4] [µg/mL] | SMILES | fold induction at 10 µM [1] |
| --- | --- | --- | --- | --- |
| 136 to 155 °C | 84.7 (≈ 196 µM) | 2.2 (≈ 5.1 µM) | COc1cc(OCc2coc(C)n2)ccc1-c1nc(-c2ccc(Cl)nc2)[nH]c1Cl [Example 211] | 2.55 |
| 129 to 132 °C | 104 (≈ 219 µM) | 2.3 (≈ 4.84 µM) | COc1cc(OCc2ccc(C(F)(F)F)cn2)ccc1-c1nc(-c2ccc(Cl)nc2)[nH]c1C [Example 68] | 2.45 |
| 165 to 167 °C | 1.1 (≈ 2.28 µM) | < 0.3 | COc1cc(OCc2ccc(C(F)(F)F)nc2)ccc1-c1nc(-c2ccc(F)nc2)n(C)c1C#N [Example 410] | 0.42 |
| 167 to 168 °C | 6.7 (≈ 12 µM) | 0.4 (≈ 0.717 µM) | COc1cc(OCc2ncc(Cl)cc2C(F)(F)F)ccc1-c1[nH]c(-c2ccc(F)nc2)nc1Br [Example 274] | 3.41 |
| 153 to 170 °C | 29.3 (≈ 56 µM) | 2 (≈ 3.82 µM) | COc1cc(OCc2ncc(C(F)(F)F)cc2Br)ccc1-c1cnc(-c2ccc(F)nc2)[nH]1 [Example 133] | 2.43 |
| 100 to 108 °C | 6.9 (≈ 13.9 µM) | 2.8 (≈ 5.65 µM) | COc1cc(OCc2ccc(C(F)(F)F)cn2)ccc1-c1c[nH]c(-c2cccc(N3CCCC3)n2)n1 [Example 40] | 0.93 |
| 169 to 171 °C | 53.6 (≈ 117 µM) | 1.8 (≈ 3.93 µM) | COc1cc(OCc2ccc(C(F)(F)F)nc2)ccc1-c1nc(-c2ccc(F)nc2)[nH]c1C [Example 24] | 2.94 |
| 172 to 174 °C | 7.2 (≈ 16.8 µM) | < 0.3 | COc1cc(OCc2cnccn2)ccc1-c1nc(-c2ccc(Cl)nc2)[nH]c1Cl [Example 230] | 1.58 |

Continued, compound first:

| SMILES | melting point | solubility at 24 h [2, 3] [µg/mL] | solubility at 24 h [2, 4] [µg/mL] | fold induction at 10 µM [1] |
| --- | --- | --- | --- | --- |
| COc1cc(-c2c[nH]c(C3CCC3)n2)ccc1OCc1ccc(C(F)(F)F)cn1 [Example 73] | 210 to 213 °C (dec.) | > 108 | 5.3 (≈ 13.1 µM) | 4.07 |
| COc1cc(OCc2cnc(Cl)s2)ccc1-c1cnc(-c2ccc(F)nc2)[nH]1 [Example 321] | 109 to 116 °C | 69.4 (≈ 166 µM) | 1.9 (≈ 4.56 µM) | 1.82 |
| COc1cc(OC(C)c2ncc(Br)cc2F)ccc1-c1[nH]c(-c2ccc(F)nc2)nc1Cl (centres unmarked) [Example 238] | 173 to 175 °C | 7.5 (≈ 14.4 µM) | 5.6 (≈ 10.7 µM) | 2.42 |
| Oc1ccc(-c2cnc(-c3ccc(F)nc3)[nH]2)cc1 [Example 343] | > 270 °C | 50 (≈ 196 µM) | 39.2 (≈ 154 µM) | 1.42 |
| COc1cc(O)ccc1-c1[nH]c(-c2ccc(F)nc2)nc1Cl [Example 313] | 209 to 214 °C (dec.) | 62.3 (≈ 195 µM) | 5 (≈ 15.6 µM) | 1.33 |
| COc1cc(-c2[nH]c(C3CCC(F)(F)CC3)nc2Cl)ccc1OCc1ncc(C(F)(F)F)cc1F [Example 326] | 173 to 176 °C | 63.7 (≈ 123 µM) | 0.7 (≈ 1.35 µM) | 2.63 |
| Oc1cc(OCc2ncc(C(F)(F)F)cc2F)ccc1-c1[nH]c(-c2ccc(F)nc2)nc1Cl [Example 407] | 229 to 233 °C (dec.) | 2.7 (≈ 5.59 µM) | < 0.3 | 1.68 |
| COc1c(OCc2ccc(C(F)(F)F)cn2)ccc(-c2c[nH]c(C3CCC(F)(F)CC3)n2)c1OC [Example 57] | 155 to 157 °C | > 99 | 0.8 (≈ 1.61 µM) | 3.72 |
| COc1cc(-c2nc(C3CCCCC3)[nH]c2Cl)ccc1OCc1ccc(C(F)(F)F)cn1 [Example 234] | 171 to 175 °C | 92.8 (≈ 199 µM) | < 0.3 | 3.06 |
